Values quoted from earlier work in patent US8143244B2, “Cyclopropyl fused indolobenzazepine HCV NS5B inhibitors” (Bristol-Myers Squibb Company, priority 2009, dated 2012).

How the values were obtained:
[1] = extended dosing of the combination regimens (interferon and ribavirin); cited from earlier work
HCV = conditions: cited from earlier work

Row | Compound | hepatic toxicity [1] | HCV RNA levels in patients (HCV; single agent: transient decrease then rebound, more robust drop combined with interferon and ribavirin) | sustained efficacy in patients (HCV; HCV therapy)
1 | CNC(=O)c1c(-c2ccc(F)cc2)oc2cc(N(CCO)S(C)(=O)=O)c(C3CC3)cc12 [HCV-796] | hepatic toxicity observed | showed an ability to reduce HCV RNA levels in patients | –
2 | alpha-interferon and ribavirin | – | – | 40 % of patients
